Assay results taken from patent publication US6355799B1, “Substituted benzene compounds, process for their preparation, and herbicidal and defoliant compositions containing them” (ISK Americas Incorporated, priority 1997, dated 2002).

Columns and labels:
Assay type in all cases: in vivo
[1] = test system: redroot pigweed (Amaranthus retroflexus, AMARE); assay: Pre-emerge test, greenhouse herbicide activity screening; details: pre-emerge, 14 days after application, rating scale 0-100
In short: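 Sandy loam pots; pre-emerge: sown 1 d pre-spray, surface-watered after, then bottom-watered. Post-emerge: sown 8–21 d before, 2–3 leaf stage, + 0.25% v/v NIS, bottom-watered. Acetone, 187 l/ha track spray, 15–1000 g ai/ha. 0–100 injury score, day 14.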

[2] = test system: johnsongrass (Sorghum halepense, SORHA); assay: Post-emerge test, greenhouse herbicide activity screening; details: rating scale 0-100 (0 no damage, 100 complete death), 14 days after application
In short: (§1)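 Herbicidal damage is scored 0 (none) to 100 (complete plant death) two weeks after a simulated field spray. Rates span 15–1000 g ai/ha, delivered in acetone at 187 l/ha. For post-emergence treatments, plants have 2–3 leaves and the spray carries 0.25% v/v non-ionic surfactant.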

[3] = test system: sicklepod (Cassia obtusifolia, CASOB); assay: as above; details: rating scale 0-100 (0 no damage, 100 complete death), 14 days after application
In short: as §1

[4] = test system: ivyleaf morningglory (Ipomoea hederacea, IPOHE); assay: as above; details: rating scale 0-100 (0 no damage, 100 complete death), 14 days after application
In short: as §1

[5] = test system: green foxtail (Setaria viridis, SETVI); assay: as above; details: rating scale 0-100 (0 no damage, 100 complete death), 14 days after application
In short: as §1

[6] = test system: common ragweed (Ambrosia artemisizfolia L., AMBEL); assay: as above; details: Rate 63 g ai/ha; rating scale 0-100 (0 no damage, 100 complete death); 14 days after application
In short: as §1

[7] = test system: lambsquarters (Chenopodium album, CHEAL); assay: as above; details: rating scale 0-100 (0 no damage, 100 complete death), 14 days after application
In short: as §1

[8] = test system: barnyardgrass (Echinochloa crus-galli, ECHCG); assay: as above; details: rating scale 0-100 (0 no damage, 100 complete death), 14 days after application
In short: as §1

[9] = test system: velvetleaf (Abutilon theophrasti, ABUTH); assay: as above; details: rating scale 0-100 (0 no damage, 100 complete death), 14 days after application
In short: as §1

[10] = test system: large crabgrass (Digitaria sanguinalis, DIGSA); assay: as above; details: rating scale 0-100 (0 no damage, 100 complete death), 14 days after application
In short: as §1

[11] = test system: redroot pigweed (Amaranthus retroflexus, AMARE); assay: as above; details: rating scale 0-100 (0 no damage, 100 complete death), 14 days after application
In short: as §1

[12] = test system: johnsongrass (Sorghum halepense, SORHA); assay: Pre-emerge test, greenhouse herbicide activity screening; details: pre-emerge, 14 days after application, rating scale 0-100
In short: (§2)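 Plants grown in 10 cm pots of sandy loam mix received acetone-dissolved compounds through a moving flat-fan nozzle. Doses ranged from 15 to 1000 g ai/ha. Pre-emerge pots were seeded one day earlier, post-emerge pots 8–21 days earlier. Fourteen days on, each pot was graded 0–100 for damage.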

[13] = test system: sicklepod (Cassia obtusifolia, CASOB); assay: as above; details: pre-emerge, 14 days after application, rating scale 0-100
In short: as §2

[14] = test system: ivyleaf morningglory (Ipomoea hederacea, IPOHE); assay: as above; details: pre-emerge, 14 days after application, rating scale 0-100
In short: as §2

[15] = test system: green foxtail (Setaria viridis, SETVI); assay: as above; details: pre-emerge, 14 days after application, rating scale 0-100
In short: as §2

[16] = test system: common ragweed (Ambrosia artemisizfolia L., AMBEL); assay: as above; details: pre-emerge, 14 days after application, rating scale 0-100
In short: as §2

[17] = test system: lambsquarters (Chenopodium album, CHEAL); assay: as above; details: pre-emerge, 14 days after application, rating scale 0-100
In short: as §2

[18] = test system: barnyardgrass (Echinochloa crus-galli, ECHCG); assay: as above; details: pre-emerge, 14 days after application, rating scale 0-100
In short: as §2

[19] = test system: velvetleaf (Abutilon theophrasti, ABUTH); assay: as above; details: pre-emerge, 14 days after application, rating scale 0-100
In short: as §2

[20] = test system: large crabgrass (Digitaria sanguinalis, DIGSA); assay: as above; details: pre-emerge, 14 days after application, rating scale 0-100
In short: as §2

[21] = test system: upland rice (Oryza sp., var. Tebonnet, RICE); assay: Pre-emerge test, crop safety; details: pre-emerge, 14 days after application, rating scale 0-100
In short: (§3)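 Compounds in acetone were track-sprayed at 15-1000 g ai/ha (187 l/ha) on sandy loam pots: pre-emerge one day after seeding, post-emerge at 2-3 leaf stage with 0.25% v/v non-ionic surfactant. Phytotoxicity was rated 14 days later on a 0 (no damage) to 100 (complete death) scale.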

[22] = test system: field corn (Zea mays L., var. Dekalb 535, CORN); assay: Pre-emerge test, crop safety; details: pre-emerge, 14 days after application, rating scale 0-100
In short: as §3

[23] = test system: upland rice (Oryza sp., var. Tebonnet, RICE); assay: Post-emerge test, crop safety; details: rating scale 0-100 (0 no damage, 100 complete death), 14 days after application
In short: (§4)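 Each test used a mechanized track sprayer delivering 187 l/ha of acetone solution at 15–1000 g ai/ha. Post-emerge foliage at 2–3 leaves was treated with added 0.25% v/v non-ionic surfactant and bottom-watered only. Injury was assessed on day 14, where 100 means total kill.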

[24] = test system: field corn (Zea mays L., var. Dekalb 535, CORN); assay: Post-emerge test, crop safety; details: rating scale 0-100 (0 no damage, 100 complete death), 14 days after application
In short: as §4

COc1c(Cl)cc(F)c(-n2c(=O)cc(C(F)(F)F)n(C)c2=O)c1CC(C)(Cl)C(=O)OCCSC (centres unmarked) [14-48]
100: phytotoxicity rating AMARE ([1]; 250 g ai/ha) | Post-emerge Herbicidal Activity, phytotoxicity rating CASOB ([3]; Rate 250 g ai/ha) | Post-emerge Herbicidal Activity, phytotoxicity rating IPOHE ([4]; Rate 250 g ai/ha) | Post-emerge Herbicidal Activity, phytotoxicity rating SETVI ([5]; Rate 250 g ai/ha) | Post-emerge Herbicidal Activity, phytotoxicity rating CHEAL ([7]; Rate 63 g ai/ha) | Post-emerge Herbicidal Activity, phytotoxicity rating CHEAL ([7]; Rate 250 g ai/ha) | Post-emerge Herbicidal Activity, phytotoxicity rating ECHCG ([8]; Rate 250 g ai/ha) | Post-emerge Herbicidal Activity, phytotoxicity rating ABUTH ([9]; Rate 63 g ai/ha) | Post-emerge Herbicidal Activity, phytotoxicity rating ABUTH ([9]; Rate 250 g ai/ha) | Post-emerge Herbicidal Activity, phytotoxicity rating AMARE ([11]; Rate 63 g ai/ha) | Post-emerge Herbicidal Activity, phytotoxicity rating AMARE ([11]; Rate 250 g ai/ha) | phytotoxicity rating CHEAL ([17]; 250 g ai/ha) | phytotoxicity rating ABUTH ([19]; 250 g ai/ha) | Post-emerge phytotoxicity rating RICE (crop damage) ([23]; Rate 250 g ai/ha) | Post-emerge phytotoxicity rating CORN (crop damage) ([24]; Rate 250 g ai/ha)
40: phytotoxicity rating CORN ([22]; 250 g ai/ha) | Post-emerge phytotoxicity rating CORN (crop damage) ([24]; Rate 63 g ai/ha)
30: phytotoxicity rating RICE ([21]; 63 g ai/ha)
80: Post-emerge Herbicidal Activity, phytotoxicity rating AMBEL [6] | phytotoxicity rating AMBEL ([16]; 250 g ai/ha)
70: Post-emerge Herbicidal Activity, phytotoxicity rating DIGSA ([10]; Rate 63 g ai/ha) | phytotoxicity rating DIGSA ([20]; 250 g ai/ha) | phytotoxicity rating RICE ([21]; 250 g ai/ha) | Post-emerge phytotoxicity rating RICE (crop damage) ([23]; Rate 63 g ai/ha)
90: phytotoxicity rating AMARE ([1]; 63 g ai/ha) | Post-emerge Herbicidal Activity, phytotoxicity rating SORHA ([2]; Rate 250 g ai/ha) | Post-emerge Herbicidal Activity, phytotoxicity rating DIGSA ([10]; Rate 250 g ai/ha) | phytotoxicity rating ABUTH ([19]; 63 g ai/ha)
0: Post-emerge Herbicidal Activity, phytotoxicity rating SORHA ([2]; Rate 63 g ai/ha) | Post-emerge Herbicidal Activity, phytotoxicity rating CASOB ([3]; Rate 63 g ai/ha) | Post-emerge Herbicidal Activity, phytotoxicity rating IPOHE ([4]; Rate 63 g ai/ha) | phytotoxicity rating SORHA ([12]; 63 g ai/ha) | phytotoxicity rating SORHA ([12]; 250 g ai/ha) | phytotoxicity rating CASOB ([13]; 63 g ai/ha) | phytotoxicity rating CASOB ([13]; 250 g ai/ha) | phytotoxicity rating IPOHE ([14]; 63 g ai/ha) | phytotoxicity rating IPOHE ([14]; 250 g ai/ha) | phytotoxicity rating SETVI ([15]; 63 g ai/ha) | phytotoxicity rating AMBEL ([16]; 63 g ai/ha) | phytotoxicity rating ECHCG ([18]; 63 g ai/ha) | phytotoxicity rating DIGSA ([20]; 63 g ai/ha) | phytotoxicity rating CORN ([22]; 63 g ai/ha)
50: Post-emerge Herbicidal Activity, phytotoxicity rating SETVI ([5]; Rate 63 g ai/ha) | Post-emerge Herbicidal Activity, phytotoxicity rating ECHCG ([8]; Rate 63 g ai/ha) | phytotoxicity rating SETVI ([15]; 250 g ai/ha) | phytotoxicity rating CHEAL ([17]; 63 g ai/ha) | phytotoxicity rating ECHCG ([18]; 250 g ai/ha)
